Laboratory results published in PubChem BioAssay AID434951 (Broad Institute, 2010).
The source made the active and inactive calls.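 The calls were made as follows: active = a fitted half-maximal concentration EC50 for the rise in nuclear signal no higher than ten times the top dose tested; inconclusive = flat fit with activity between 30% and 70%, or unusable fit; inactive = EC50 beyond ten times the top dose.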

molecular target: Hypoxia-inducible factor 1-alpha (Homo sapiens) (UniProt Q16665); test: activators of HIF1alpha nuclear accumulation, confirmation, imaging, fluorescence, U2OS GFP-HIF1alpha (AID 434951); details: U2OS GFP-HIF1alpha nuclear intensity, high-content imaging
Sequence (Q16665 whole entry, looked up): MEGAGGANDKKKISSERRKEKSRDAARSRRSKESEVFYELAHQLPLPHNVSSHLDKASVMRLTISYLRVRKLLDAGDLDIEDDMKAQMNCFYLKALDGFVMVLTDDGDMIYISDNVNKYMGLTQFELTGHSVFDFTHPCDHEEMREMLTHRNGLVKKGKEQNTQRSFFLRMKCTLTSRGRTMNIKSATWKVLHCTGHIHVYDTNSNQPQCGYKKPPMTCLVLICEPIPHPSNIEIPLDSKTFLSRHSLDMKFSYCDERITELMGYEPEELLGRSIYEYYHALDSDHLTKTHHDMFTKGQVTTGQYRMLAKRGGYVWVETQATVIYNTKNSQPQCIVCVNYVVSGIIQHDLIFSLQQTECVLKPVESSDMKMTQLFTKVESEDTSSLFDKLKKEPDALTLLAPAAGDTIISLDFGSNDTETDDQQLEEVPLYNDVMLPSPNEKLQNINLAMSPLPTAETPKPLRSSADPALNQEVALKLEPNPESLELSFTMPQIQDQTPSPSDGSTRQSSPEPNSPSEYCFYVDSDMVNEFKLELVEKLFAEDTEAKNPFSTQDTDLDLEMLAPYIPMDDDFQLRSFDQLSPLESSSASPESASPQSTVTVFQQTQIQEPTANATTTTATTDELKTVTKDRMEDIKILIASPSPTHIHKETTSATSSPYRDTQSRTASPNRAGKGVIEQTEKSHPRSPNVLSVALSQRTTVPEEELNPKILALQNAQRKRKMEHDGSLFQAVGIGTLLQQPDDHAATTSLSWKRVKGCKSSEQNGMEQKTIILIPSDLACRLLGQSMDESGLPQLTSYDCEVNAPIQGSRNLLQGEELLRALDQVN

Row | SMILES | EC50
1 | O=C(N/N=C/c1ccccn1)c1ccc(Cl)cc1 | 12.8 µM
2 | Cc1ccc(S(=O)(=O)N2CCN(c3ccccn3)CC2)cc1 | > 35 µM (inactive)
3 | CCOc1ccc(NC(=O)CSc2nnc(Cn3cnc4ccccc43)n2C)cc1 | > 35 µM (inactive)
4 | N/C(=N\OC(=O)C(c1ccccc1)c1ccccc1)c1cccnc1 | > 35 µM (inactive)
5 | Cc1ccc(Cl)cc1N1CCN(CC(O)COCc2ccco2)CC1 (stereo not drawn) | > 35 µM (inactive)
6 | c1ccc(CSc2nnc(-c3ccco3)o2)cc1 | > 35 µM (inactive)
7 | O=C(NNC(=S)Nc1ccc(Cl)c(Cl)c1)c1ccccn1 | 6.71 µM
8 | CCC(=O)NC(c1ccc(OC)cc1)c1cc(Cl)c2cccnc2c1O (stereo not drawn) | 11.8 µM
9 | O=C(N/N=C/c1ccccc1O)c1cccc(C(F)(F)F)c1 | 14.3 µM
10 | Cc1ccc(NC(=S)N(Cc2cccs2)Cc2cc3cccc(C)c3[nH]c2=O)cc1 | > 35 µM (inactive)
11 | COc1ccc2oc(C(=O)OCC(=O)Nc3ccccc3OC)c(C)c2c1 | > 35 µM (inactive)
12 | C/C(=N\NC(=O)c1cc(-c2cccnc2)nc2ccccc12)c1ccccc1O | 21.9 µM
13 | Cc1ccc(O)c(NC(=O)c2ccc3c(c2)C(=O)N(Cc2ccco2)C3=O)c1 | > 35 µM (inactive)
14 | Cc1ccc(/C=N\Nc2nc3ccc(Cl)cc3[nH]2)o1 | > 35 µM (inactive)
15 | O=C(NCc1cccs1)C1CC(=O)N(C2CCCC2)C1 (stereo not drawn) | > 35 µM (inactive)
16 | Cc1c(/C=N/NC(N)=O)c2ccccn2c1C(=O)c1ccncc1 | > 35 µM (inactive)
17 | Cc1ccc(-c2cc(C(F)(F)F)n3nc(C(=O)Nc4c(C)n(C)n(-c5ccccc5)c4=O)cc3n2)cc1 | > 35 µM (inactive)
18 | COc1ccc(CCNC(=O)CSc2nc(-c3ccc(OC)c(OC)c3)ccc2C#N)cc1 | > 35 µM (inactive)
19 | Cc1ccc(S(=O)(=O)c2nc(-c3ccccc3Cl)oc2N(C)C)cc1 | > 35 µM (inactive)
20 | COc1ccc(C(NC(=O)C(C)C)c2ccc3cccnc3c2O)cc1 (stereo not drawn) | 2.66 µM
21 | Cc1cccc(NC(=O)COc2cccc3c2CCN(C)C3=O)c1C | > 35 µM (inactive)
22 | N/C(=N\OC(=O)Cc1cccs1)c1ccccc1 | > 35 µM (inactive)
23 | Cc1occc1C(=O)N/N=C/c1c(O)ccc2ccccc12 | 11.7 µM
24 | Cc1ccc(C)c(-n2nnnc2Sc2nnnn2-c2ccccc2)c1 | > 35 µM (inactive)
25 | CCOC(=O)CCS(=O)(=O)c1nc(-c2ccccc2)cc(C(F)(F)F)n1 | > 35 µM (inactive)
26 | Oc1ccc(/C=N/Nc2ccc(C(F)(F)F)cn2)c(O)c1 | 29.8 µM

Row | SMILES | EC50
27 | Cc1onc(-c2ccccc2)c1C(=O)Nc1ccc(S(=O)(=O)N2CCCC2)cc1 | > 35 µM (inactive)
28 | CCCCC(=O)NC(c1ccc(Cl)cc1)c1ccc2cccnc2c1O (stereo not drawn) | 1.66 µM
29 | S=C(N/N=C/c1cccc2ccccc12)Nc1cccc(Cl)c1 | 31.9 µM
30 | O=C(NCc1ccco1)c1cc(-c2cccs2)on1 | 34.5 µM
31 | CCSc1nc(NCCN(C)C)c2c3c(sc2n1)COC(C)(CC)C3 (stereo not drawn) | > 35 µM (inactive)
32 | CCN(CC(=O)Nc1ccc2c(c1)OCCO2)CC(=O)Nc1ccc2c(c1)OCO2 | > 35 µM (inactive)
33 | c1ccc(CSc2ccc(-c3ccccn3)nn2)cc1 | 5.92 µM
34 | CCN(CC)c1ccc(/C=N/Nc2nc3ccccc3[nH]2)c(O)c1 | 6.95 µM
35 | COc1ccc(N2CCN(C(=O)COc3ccc4c(C)c(C)c(=O)oc4c3C)CC2)cc1 | > 35 µM (inactive)
36 | CC12CC3(C)CC(C)(C1)CC(C(=O)NCCc1ccc(S(N)(=O)=O)cc1)(C2)C3 | > 35 µM (inactive)
37 | Cc1ccc(N(C)S(=O)(=O)c2ccc(-c3cc(C)no3)s2)cc1 | > 35 µM (inactive)
38 | CCC/C(O)=C1\C(=O)CC(C)(C)CC1=NCc1ccccc1 | > 35 µM (inactive)
39 | O=C(/C=C/c1ccco1)Oc1cc(Br)cc(/C=N/NC(=O)c2ccccc2O)c1 | 5.43 µM
40 | CC(C)(C)NC(=O)COC(=O)c1ccc(Cl)nc1 | > 35 µM (inactive)
41 | CC(=O)NCCC(=O)Nc1cc(S(=O)(=O)N2CCOCC2)ccc1N1CCOCC1 | > 35 µM (inactive)
42 | Cc1cc(NC(=O)CSc2nc3c(c(=O)n2-c2ccc(Cl)cc2)SCC3)no1 | > 35 µM (inactive)
43 | CC(OC(=O)c1ncc(Cl)c(Cl)c1Cl)C(=O)NC1(C#N)CCCCC1 (stereo not drawn) | 17.4 µM
44 | CC1(C)Cc2c(C#N)c(SCCC#N)nc(N3CCOCC3)c2CO1 | > 35 µM (inactive)
45 | Cc1cc(N/C=C/C(=O)c2ccc(Br)cc2)no1 | > 35 µM (inactive)
46 | Cc1ccc(CN2[C@@H](CC(C)C)COCCS2(=O)=O)cc1 | > 35 µM (inactive)
47 | COc1ccc(CN(C)CC(=O)Nc2ccc(SC(F)F)cc2)cc1OC | > 35 µM (inactive)
48 | O=C(CSc1nnc(-c2ccco2)n1Cc1ccco1)NCc1ccccc1 | > 35 µM (inactive)
49 | Cc1cc([N+](=O)[O-])nn1Cc1ccc(C(=O)N/N=C/c2ccc(O)cc2O)cc1 | 22.4 µM
50 | COc1ccc(NC(=O)Nc2ccc(Br)cn2)cc1 | > 35 µM (inactive)
51 | CCn1nc(NS(=O)(=O)c2ccc(NC(C)=O)cc2)c2cc3cccc(C)c3nc21 | > 35 µM (inactive)
52 | O=C(COc1ccccc1)N(Cc1cccc(F)c1)C1CCS(=O)(=O)C1 (stereo not drawn) | > 35 µM (inactive)

Row | SMILES | EC50
53 | FC(F)Oc1ccc(NC(=S)Nc2ccc3cn[nH]c3c2)cc1 | > 35 µM (inactive)
54 | COc1ccc(NC(=O)c2cccs2)cn1 | > 35 µM (inactive)
55 | CC(C)CC1NC(=O)N(Cc2cc(=O)n3ccsc3n2)C1=O (stereo not drawn) | > 35 µM (inactive)
56 | CCN(CC)S(=O)(=O)c1ccc(N/N=C(\C)c2ccc(OC)cc2O)nc1 | 7.86 µM
57 | Cc1ccc(C)c(CNS(=O)(=O)c2ccc3c(c2)C(C)(C)C(=O)N3C)c1 | > 35 µM (inactive)
58 | CSc1sc(C(=O)N2CCCCC2)c(-c2cccs2)c1C#N | > 35 µM (inactive)
59 | O=C(Cn1c(SCC(=O)N2CCCc3ccccc32)nc2ccccc21)N1CCCC1 | > 35 µM (inactive)
60 | O=C(N/N=C/c1cc(Br)ccc1O)c1ccncc1 | > 35 µM (inactive)
61 | CCOc1ccc(/C=N/NC(=O)c2[nH]ncc2Br)c(O)c1 | 10.2 µM
62 | COc1cccc(/C=N/NC(=O)c2ccc([N+](=O)[O-])cc2Cl)c1O | > 35 µM (inactive)
63 | O=C(COC(=O)Cc1ccc(S(=O)(=O)N2CCCCC2)s1)Nc1ccc2c(c1)OCO2 | > 35 µM (inactive)
64 | C=CCNC(=O)/C(=C/c1cn(-c2ccccc2)nc1-c1cccc([N+](=O)[O-])c1)NC(=O)c1ccccc1 | > 35 µM (inactive)
65 | Oc1ccc(CN2CCC(Cc3ccccc3)CC2)c2cccnc12 | 5.17 µM
66 | Cc1cc(NC(c2cccnc2)c2ccc3cccnc3c2O)no1 (stereo not drawn) | 23.3 µM
67 | CCCC(=O)NC(c1ccc(N(C)C)cc1)c1ccc2cccnc2c1O (stereo not drawn) | 6.62 µM
68 | COc1ccc2cc(C(C)C(=O)N3CCC(C(N)=O)CC3)ccc2c1 (stereo not drawn) | > 35 µM (inactive)
69 | O=C(CCCOc1ccc(Cl)cc1Cl)N/N=C/c1ccccc1O | 7.41 µM
70 | O=C(NCc1nc2ccccc2[nH]1)c1c(F)c(F)c(F)c(F)c1F | > 35 µM (inactive)
71 | Cc1cc(SCC(=O)N/N=C/c2ccccc2C(=O)O)c(C)cc1Br | > 35 µM (inactive)
72 | CCC(=O)NC(c1cccs1)c1ccc2cccnc2c1O (stereo not drawn) | 5.48 µM
73 | COc1ccc(C)cc1NC(=O)c1ccc(N(C)S(C)(=O)=O)cc1 | > 35 µM (inactive)
74 | CC(C)(C)c1cc(C(=O)N2CCN(c3ncccn3)CC2)ccn1 | > 35 µM (inactive)
75 | Cc1cc(Nc2ccccc2)cc(=O)n1C | > 35 µM (inactive)
76 | COc1ccc(N2C(=O)[C@@H]3C(c4cccnc4)=NO[C@@H]3C2=O)cc1 | > 35 µM (inactive)
77 | Cc1ccc2[nH]c(C(=O)N/N=C/c3ccccc3O)c(C)c2c1 | 7.06 µM
78 | CNc1c2c(nn1C)CCCC2 | > 35 µM (inactive)

Row | SMILES | EC50
79 | Cc1cc2ccc3ccccc3c2cc1CN(C)C | > 35 µM (inactive)
80 | Cc1c(C(=O)N2CCCCC2)c(S(=O)(=O)NCCc2ccc(Cl)cc2)c(C)n1C | > 35 µM (inactive)
81 | FC(F)(F)c1cnc(N2CCN(C(=S)NCc3ccccc3)CC2)c(Cl)c1 | > 35 µM (inactive)
82 | COc1ccc(C(=O)C2CCCN(C(=O)C3CCOCC3)C2)cc1OC (stereo not drawn) | > 35 µM (inactive)
83 | Cc1cccc(NC(=S)N2CCC(N(C)CC3CCCO3)CC2)c1 (stereo not drawn) | > 35 µM (inactive)
84 | Cc1noc(C(=O)Nc2sc3c(c2C#N)CCC3)c1Cl | > 35 µM (inactive)
85 | O=C(Nc1ccccc1)N(C1=NCCCCS1)c1cccc2ccccc12 | > 35 µM (inactive)
86 | COc1ccc(/C=N/NC(=O)c2cccnc2)cc1CN1CCN(c2ccc(F)cc2)CC1 | > 35 µM (inactive)
87 | COc1ccc(Cl)c(OC)c1C(=O)NC(=O)Nc1c(F)cc(F)cc1F | > 35 µM (inactive)
88 | CN(/N=C/c1c[nH]c2ccccc12)c1cnn(-c2ccc(F)c(Cl)c2)c(=O)c1Cl | > 35 µM (inactive)
89 | Cc1cccnc1Nc1nc(-c2ccccn2)cs1 | 3.83 µM
90 | Cc1ccc(C2(O)CN(c3ccccc3C)C3=[N+]2CCS3)cc1 (stereo not drawn) | > 35 µM (inactive)
91 | COc1cc(SC)ccc1C(=O)NCCc1ccccc1 | > 35 µM (inactive)
92 | CC(=O)c1cccc(NC(=O)CSC(=O)c2ccccc2)c1 | > 35 µM (inactive)
93 | CC(C(=O)N1CCOCC1)N1c2cccc3cccc(c23)S1(=O)=O (stereo not drawn) | > 35 µM (inactive)
94 | Cn1cc(CN2CCC(C(=O)Nc3cccc(-c4cscn4)c3)CC2)cn1 | > 35 µM (inactive)
95 | COc1ccc(NC(=O)c2cccc(NC(=O)c3ccco3)c2)c(OC)c1 | > 35 µM (inactive)
96 | Cc1ccc(C(=O)CSc2ccc(-c3ccncc3)nn2)cc1 | > 35 µM (inactive)
97 | COc1cccc(C(=O)C2CCCN(Cc3ccc4nsnc4c3)C2)c1 (stereo not drawn) | > 35 µM (inactive)
98 | CCCC(C)NC(=O)CN1C(=O)NC2(CCc3ccccc32)C1=O (stereo not drawn) | > 35 µM (inactive)
99 | Cc1nc2ccccc2n2c(-c3ccccc3)c3c(=O)n(C)c(=O)n(C)c3c12 | > 35 µM (inactive)
100 | COc1cccc(/C=N/Nc2cc(-n3nc(C)cc3-c3ccccc3)ncn2)c1O | 12.5 µM
101 | COCc1nnc(NC(=O)c2cc(Cl)ccc2OC)s1 | > 35 µM (inactive)
102 | CN(C)c1ccc(S(=O)(=O)NCC(=O)OCC(=O)Nc2cc(Cl)cc(Cl)c2)cc1[N+](=O)[O-] | > 35 µM (inactive)
103 | CCOC(=O)CN(C(=O)COc1nc(C)cc(C)c1C#N)c1cccc(Cl)c1 | > 35 µM (inactive)
